Test results: PubChem BioAssay (NCI)
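A five-concentration, 48-hour dose response in 96-well plates underlies each endpoint, interpolated linearly between surrounding concentrations. GI50: concentration for 50% inhibition of growth. TGI denotes the concentration required for complete inhibition of growth.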

Experiments:
Experiment in all cases: DTP human tumour cell line panel, 48 h
786-0 renal = tested on: 786-0 renal
A498 renal = tested on: A498 renal
A549 NSCLC = tested on: A549 NSCLC
ACHN renal = tested on: ACHN renal
BT-549 breast = tested on: BT-549 breast
CAKI-1 renal = tested on: CAKI-1 renal
CCRF-CEM leukemia = tested on: CCRF-CEM leukemia
COLO 205 colon = tested on: COLO 205 colon
DU-145 prostate = tested on: DU-145 prostate
EKVX NSCLC = tested on: EKVX NSCLC
HCC-2998 colon = tested on: HCC-2998 colon
HCT-116 colon = tested on: HCT-116 colon
HCT-15 colon = tested on: HCT-15 colon
HL-60(TB) leukemia = tested on: HL-60(TB) leukemia
HOP-62 NSCLC = tested on: HOP-62 NSCLC
HOP-92 NSCLC = tested on: HOP-92 NSCLC
HS 578T breast = tested on: HS 578T breast
HT29 colon = tested on: HT29 colon
IGROV1 ovarian = tested on: IGROV1 ovarian
K-562 leukemia = tested on: K-562 leukemia
KM12 colon = tested on: KM12 colon
LOX IMVI melanoma = tested on: LOX IMVI melanoma
M14 melanoma = tested on: M14 melanoma
MALME-3M melanoma = tested on: MALME-3M melanoma
MCF7 breast = tested on: MCF7 breast
MDA-MB-231 breast = tested on: MDA-MB-231 breast
MDA-MB-435 = tested on: MDA-MB-435
MOLT-4 leukemia = tested on: MOLT-4 leukemia
NCI-H226 lung = tested on: NCI-H226 lung
NCI-H23 lung = tested on: NCI-H23 lung
NCI-H460 lung = tested on: NCI-H460 lung
NCI-H522 lung = tested on: NCI-H522 lung
NCI/ADR-RES ovarian = tested on: NCI/ADR-RES ovarian
OVCAR-3 ovarian = tested on: OVCAR-3 ovarian
OVCAR-4 ovarian = tested on: OVCAR-4 ovarian
OVCAR-5 ovarian = tested on: OVCAR-5 ovarian
OVCAR-8 ovarian = tested on: OVCAR-8 ovarian
PC-3 prostate = tested on: PC-3 prostate
RPMI-8226 leukemia = tested on: RPMI-8226 leukemia
RXF 393 renal = tested on: RXF 393 renal
SF-268 CNS = tested on: SF-268 CNS
SF-295 CNS = tested on: SF-295 CNS
SF-539 CNS = tested on: SF-539 CNS
SK-MEL-2 melanoma = tested on: SK-MEL-2 melanoma
SK-MEL-28 melanoma = tested on: SK-MEL-28 melanoma
SK-MEL-5 melanoma = tested on: SK-MEL-5 melanoma
SK-OV-3 ovarian = tested on: SK-OV-3 ovarian
SN12C renal = tested on: SN12C renal
SNB-19 CNS = tested on: SNB-19 CNS
SNB-75 CNS = tested on: SNB-75 CNS
SR leukemia = tested on: SR leukemia
SW-620 colon = tested on: SW-620 colon
T-47D breast = tested on: T-47D breast
TK-10 renal = tested on: TK-10 renal
U251 CNS = tested on: U251 CNS
UACC-257 melanoma = tested on: UACC-257 melanoma
UACC-62 melanoma = tested on: UACC-62 melanoma
UO-31 renal = tested on: UO-31 renal

Compound: Cc1cc2c([nH]1)CSc1cc(S(=O)(=O)c3ccccc3)c(=O)[nH]c1-2
- GI50 (786-0 renal): 14.9 µM
- TGI (786-0 renal): > 100 µM
- GI50 (A498 renal): 22.1 µM
- TGI (A498 renal): 69.7 µM
- GI50 (A549 NSCLC): 43.8 µM
- TGI (A549 NSCLC): > 100 µM
- GI50 (ACHN renal): 13.3 µM
- TGI (ACHN renal): > 100 µM
- GI50 (BT-549 breast): 0.732 µM
- TGI (BT-549 breast): > 74.4 µM
- GI50 (CAKI-1 renal): 4.4 µM
- TGI (CAKI-1 renal): > 58.4 µM
- GI50 (CCRF-CEM leukemia): 0.452 µM
- TGI (CCRF-CEM leukemia): > 100 µM
- GI50 (COLO 205 colon): 14.1 µM
- TGI (COLO 205 colon): 35.2 µM
- GI50 (DU-145 prostate): 0.722 µM
- TGI (DU-145 prostate): 13.2 µM
- GI50 (EKVX NSCLC): 21 µM
- TGI (EKVX NSCLC): > 100 µM
- GI50 (HCC-2998 colon): 3.42 µM
- TGI (HCC-2998 colon): > 42.6 µM
- GI50 (HCT-116 colon): 0.368 µM
- TGI (HCT-116 colon): 10.9 µM
- GI50 (HCT-15 colon): 0.392 µM
- TGI (HCT-15 colon): > 100 µM
- GI50 (HL-60(TB) leukemia): 0.249 µM
- GI50 (HOP-62 NSCLC): 2.09 µM
- TGI (HOP-62 NSCLC): > 100 µM
- GI50 (HOP-92 NSCLC): 0.139 µM
- TGI (HOP-92 NSCLC): 1.32 µM
- GI50 (HS 578T breast): 1.8 µM
- TGI (HS 578T breast): 9.43 µM
- GI50 (HT29 colon): 0.316 µM
- GI50 (IGROV1 ovarian): 0.82 µM
- TGI (IGROV1 ovarian): > 95.5 µM
- GI50 (K-562 leukemia): 2.56 µM
- TGI (K-562 leukemia): > 100 µM
- GI50 (KM12 colon): 0.461 µM
- TGI (KM12 colon): 5.24 µM
- GI50 (LOX IMVI melanoma): 0.61 µM
- TGI (LOX IMVI melanoma): > 73.2 µM
- GI50 (M14 melanoma): 0.289 µM
- TGI (M14 melanoma): 2.16 µM
- GI50 (MALME-3M melanoma): 0.568 µM
- TGI (MALME-3M melanoma): 75.9 µM
- GI50 (MCF7 breast): 0.263 µM
- TGI (MCF7 breast): 16.1 µM
- GI50 (MDA-MB-231 breast): 1.63 µM
- TGI (MDA-MB-231 breast): > 100 µM
- GI50 (MDA-MB-435): 0.197 µM
- TGI (MDA-MB-435): 0.46 µM
- GI50 (MOLT-4 leukemia): 2.74 µM
- TGI (MOLT-4 leukemia): > 100 µM
- GI50 (NCI-H226 lung): 14.6 µM
- TGI (NCI-H226 lung): > 88.7 µM
- GI50 (NCI-H23 lung): 1.04 µM
- TGI (NCI-H23 lung): 60.6 µM
- GI50 (NCI-H460 lung): 20.6 µM
- TGI (NCI-H460 lung): 68.5 µM
- GI50 (NCI-H522 lung): 3.77 µM
- TGI (NCI-H522 lung): 36.7 µM
- GI50 (NCI/ADR-RES ovarian): 0.445 µM
- TGI (NCI/ADR-RES ovarian): 2.17 µM
- GI50 (OVCAR-3 ovarian): 0.246 µM
- TGI (OVCAR-3 ovarian): 0.615 µM
- GI50 (OVCAR-4 ovarian): 0.553 µM
- TGI (OVCAR-4 ovarian): > 86.2 µM
- GI50 (OVCAR-5 ovarian): 17.6 µM
- TGI (OVCAR-5 ovarian): > 100 µM
- GI50 (OVCAR-8 ovarian): 1.54 µM
- TGI (OVCAR-8 ovarian): > 100 µM
- GI50 (PC-3 prostate): 0.351 µM
- TGI (PC-3 prostate): > 100 µM
- GI50 (RPMI-8226 leukemia): 0.806 µM
- TGI (RPMI-8226 leukemia): > 100 µM
- GI50 (RXF 393 renal): 4.64 µM
- TGI (RXF 393 renal): > 61.5 µM
- GI50 (SF-268 CNS): 2.39 µM
- TGI (SF-268 CNS): > 80.9 µM
- GI50 (SF-295 CNS): 2.4 µM
- TGI (SF-295 CNS): 8.09 µM
- GI50 (SF-539 CNS): 0.327 µM
- TGI (SF-539 CNS): 1.82 µM
- GI50 (SK-MEL-2 melanoma): 1.46 µM
- TGI (SK-MEL-2 melanoma): > 83.2 µM
- GI50 (SK-MEL-28 melanoma): 4.67 µM
- TGI (SK-MEL-28 melanoma): 42.5 µM
- GI50 (SK-MEL-5 melanoma): 0.5 µM
- TGI (SK-MEL-5 melanoma): 16.1 µM
- GI50 (SK-OV-3 ovarian): 21.9 µM
- TGI (SK-OV-3 ovarian): > 100 µM
- GI50 (SN12C renal): 0.666 µM
- TGI (SN12C renal): > 100 µM
- GI50 (SNB-19 CNS): 2.16 µM
- TGI (SNB-19 CNS): > 100 µM
- GI50 (SNB-75 CNS): 1.56 µM
- TGI (SNB-75 CNS): > 24 µM
- GI50 (SR leukemia): 0.167 µM
- TGI (SR leukemia): > 100 µM
- GI50 (SW-620 colon): 0.306 µM
- TGI (SW-620 colon): > 100 µM
- GI50 (T-47D breast): 0.35 µM
- TGI (T-47D breast): 55.1 µM
- GI50 (TK-10 renal): 21.7 µM
- TGI (TK-10 renal): > 100 µM
- GI50 (U251 CNS): 0.388 µM
- TGI (U251 CNS): > 100 µM
- GI50 (UACC-257 melanoma): 17.3 µM
- TGI (UACC-257 melanoma): > 100 µM
- GI50 (UACC-62 melanoma): 0.465 µM
- TGI (UACC-62 melanoma): > 39.6 µM
- GI50 (UO-31 renal): 16.4 µM
- TGI (UO-31 renal): > 93.6 µM
